Test results reported in the supplement of paper PMC12076712.

How the values were obtained:
Assay in all cases: pIC50, kinobeads binding competition
EPHB2 = target: T1, EPHB2 (UniProt P29323)
T1 sequence (whole entry): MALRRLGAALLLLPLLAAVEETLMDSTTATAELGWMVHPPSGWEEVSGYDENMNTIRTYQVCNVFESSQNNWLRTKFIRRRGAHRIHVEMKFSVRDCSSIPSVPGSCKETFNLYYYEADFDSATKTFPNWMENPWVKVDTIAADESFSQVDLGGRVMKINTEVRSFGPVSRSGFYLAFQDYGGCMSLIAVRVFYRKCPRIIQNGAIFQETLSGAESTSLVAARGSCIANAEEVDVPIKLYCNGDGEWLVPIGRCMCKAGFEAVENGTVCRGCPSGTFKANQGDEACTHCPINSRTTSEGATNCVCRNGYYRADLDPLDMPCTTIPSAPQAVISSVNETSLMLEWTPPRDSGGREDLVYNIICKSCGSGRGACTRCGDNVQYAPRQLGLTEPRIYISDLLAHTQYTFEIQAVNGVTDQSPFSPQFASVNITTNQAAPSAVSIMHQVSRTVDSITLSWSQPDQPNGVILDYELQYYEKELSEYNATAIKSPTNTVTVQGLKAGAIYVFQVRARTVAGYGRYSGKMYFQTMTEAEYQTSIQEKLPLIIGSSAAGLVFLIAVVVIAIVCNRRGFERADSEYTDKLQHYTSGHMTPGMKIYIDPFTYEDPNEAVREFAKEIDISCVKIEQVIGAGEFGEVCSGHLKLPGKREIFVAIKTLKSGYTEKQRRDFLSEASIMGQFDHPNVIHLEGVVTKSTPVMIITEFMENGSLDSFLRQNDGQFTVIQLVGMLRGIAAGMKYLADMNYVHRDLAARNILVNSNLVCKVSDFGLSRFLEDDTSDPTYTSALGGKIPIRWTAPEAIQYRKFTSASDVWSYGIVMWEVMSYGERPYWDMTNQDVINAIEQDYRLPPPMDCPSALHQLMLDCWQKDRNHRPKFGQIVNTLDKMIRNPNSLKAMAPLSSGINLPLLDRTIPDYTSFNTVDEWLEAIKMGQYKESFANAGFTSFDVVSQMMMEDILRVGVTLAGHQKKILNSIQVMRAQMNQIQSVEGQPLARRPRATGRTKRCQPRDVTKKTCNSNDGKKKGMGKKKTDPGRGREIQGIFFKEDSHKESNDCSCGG
Summary of the method: (§1)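 Live Jurkat cells were treated with nine compound concentrations (top 30 μM, 1:4 steps) or DMSO for 60 min at 37 °C before lysis. Alternatively, Jurkat lysate or a 1:1:1:1 HEK293/K-562/HepG2/placenta lysate mix was incubated with nine concentrations (top 30 μM, 1:5 steps) for 60 min at 4 °C. Kinobeads-bound proteins were digested and quantified by TMT10 LC-MS/MS. pIC50 came from logistic dose-response fits (R drc package) of fold changes versus DMSO, in biological duplicates.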

MYLK = MYLK (UniProt Q15746); settings: cell material: Lysate mix
Sequence of MYLK (Q15746 whole entry): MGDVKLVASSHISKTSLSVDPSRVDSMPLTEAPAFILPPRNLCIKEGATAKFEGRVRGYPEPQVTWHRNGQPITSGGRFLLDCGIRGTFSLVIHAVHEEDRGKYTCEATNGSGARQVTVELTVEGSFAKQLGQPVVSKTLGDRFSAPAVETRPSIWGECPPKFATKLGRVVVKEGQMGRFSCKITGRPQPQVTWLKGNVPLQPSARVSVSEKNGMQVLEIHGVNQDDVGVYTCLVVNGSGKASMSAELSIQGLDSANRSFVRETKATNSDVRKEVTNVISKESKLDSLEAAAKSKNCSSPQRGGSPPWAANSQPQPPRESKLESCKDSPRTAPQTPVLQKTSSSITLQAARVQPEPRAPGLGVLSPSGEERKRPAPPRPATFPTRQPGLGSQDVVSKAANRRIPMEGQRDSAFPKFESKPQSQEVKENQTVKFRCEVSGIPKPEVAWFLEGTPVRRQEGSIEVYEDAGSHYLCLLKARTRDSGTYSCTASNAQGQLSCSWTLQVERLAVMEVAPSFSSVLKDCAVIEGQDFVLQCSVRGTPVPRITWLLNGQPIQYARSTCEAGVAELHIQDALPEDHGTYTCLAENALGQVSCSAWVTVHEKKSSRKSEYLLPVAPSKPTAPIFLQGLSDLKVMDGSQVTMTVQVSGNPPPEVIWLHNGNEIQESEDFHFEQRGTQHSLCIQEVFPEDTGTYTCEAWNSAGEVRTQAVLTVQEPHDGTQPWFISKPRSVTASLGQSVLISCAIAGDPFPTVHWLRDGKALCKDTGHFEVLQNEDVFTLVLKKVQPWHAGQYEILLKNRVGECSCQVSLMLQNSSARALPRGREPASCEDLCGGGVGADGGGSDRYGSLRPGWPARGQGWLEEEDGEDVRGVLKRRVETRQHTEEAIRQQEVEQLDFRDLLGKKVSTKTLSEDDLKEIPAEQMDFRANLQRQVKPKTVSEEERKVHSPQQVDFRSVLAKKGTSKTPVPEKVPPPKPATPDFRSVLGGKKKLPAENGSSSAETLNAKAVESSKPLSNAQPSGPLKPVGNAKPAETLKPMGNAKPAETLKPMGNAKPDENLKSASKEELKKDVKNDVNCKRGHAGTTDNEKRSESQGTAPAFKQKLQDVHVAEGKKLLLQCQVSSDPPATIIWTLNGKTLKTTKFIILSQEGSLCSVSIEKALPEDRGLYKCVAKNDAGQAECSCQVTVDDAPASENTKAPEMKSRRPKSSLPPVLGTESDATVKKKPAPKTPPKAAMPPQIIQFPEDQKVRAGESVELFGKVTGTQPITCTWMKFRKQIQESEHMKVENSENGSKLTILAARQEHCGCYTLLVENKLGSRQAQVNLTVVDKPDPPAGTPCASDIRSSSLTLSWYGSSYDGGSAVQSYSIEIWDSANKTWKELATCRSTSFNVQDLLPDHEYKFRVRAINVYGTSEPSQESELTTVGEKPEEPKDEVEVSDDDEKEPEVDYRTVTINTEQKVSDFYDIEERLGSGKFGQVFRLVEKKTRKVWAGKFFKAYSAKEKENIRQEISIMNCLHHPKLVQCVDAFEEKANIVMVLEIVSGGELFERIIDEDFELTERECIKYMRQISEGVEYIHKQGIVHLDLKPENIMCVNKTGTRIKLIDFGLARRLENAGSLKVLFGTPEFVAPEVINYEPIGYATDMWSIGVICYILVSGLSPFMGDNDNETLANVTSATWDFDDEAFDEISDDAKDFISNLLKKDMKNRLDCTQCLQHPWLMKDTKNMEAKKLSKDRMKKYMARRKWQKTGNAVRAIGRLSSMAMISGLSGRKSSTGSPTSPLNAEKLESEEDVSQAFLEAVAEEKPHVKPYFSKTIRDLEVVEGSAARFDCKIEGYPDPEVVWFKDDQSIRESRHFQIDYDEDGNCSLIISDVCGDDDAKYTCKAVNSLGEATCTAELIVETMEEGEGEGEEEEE
Summary of the method: as §1

CDK5 = CDK5 (UniProt Q00535)
Sequence of CDK5 (Q00535 whole entry, looked up): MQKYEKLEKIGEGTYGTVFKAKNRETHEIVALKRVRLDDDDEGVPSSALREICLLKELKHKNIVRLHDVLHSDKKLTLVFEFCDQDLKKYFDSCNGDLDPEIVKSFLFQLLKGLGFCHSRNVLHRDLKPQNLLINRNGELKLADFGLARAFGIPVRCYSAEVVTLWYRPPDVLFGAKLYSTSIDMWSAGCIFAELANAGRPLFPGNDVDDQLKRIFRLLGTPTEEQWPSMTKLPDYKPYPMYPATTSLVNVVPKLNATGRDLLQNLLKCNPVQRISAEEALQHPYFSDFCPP
Summary of the method: as §1

UniProt Q92918 = target: UniProt Q92918
Sequence of UniProt Q92918 (Q92918 whole entry, looked up): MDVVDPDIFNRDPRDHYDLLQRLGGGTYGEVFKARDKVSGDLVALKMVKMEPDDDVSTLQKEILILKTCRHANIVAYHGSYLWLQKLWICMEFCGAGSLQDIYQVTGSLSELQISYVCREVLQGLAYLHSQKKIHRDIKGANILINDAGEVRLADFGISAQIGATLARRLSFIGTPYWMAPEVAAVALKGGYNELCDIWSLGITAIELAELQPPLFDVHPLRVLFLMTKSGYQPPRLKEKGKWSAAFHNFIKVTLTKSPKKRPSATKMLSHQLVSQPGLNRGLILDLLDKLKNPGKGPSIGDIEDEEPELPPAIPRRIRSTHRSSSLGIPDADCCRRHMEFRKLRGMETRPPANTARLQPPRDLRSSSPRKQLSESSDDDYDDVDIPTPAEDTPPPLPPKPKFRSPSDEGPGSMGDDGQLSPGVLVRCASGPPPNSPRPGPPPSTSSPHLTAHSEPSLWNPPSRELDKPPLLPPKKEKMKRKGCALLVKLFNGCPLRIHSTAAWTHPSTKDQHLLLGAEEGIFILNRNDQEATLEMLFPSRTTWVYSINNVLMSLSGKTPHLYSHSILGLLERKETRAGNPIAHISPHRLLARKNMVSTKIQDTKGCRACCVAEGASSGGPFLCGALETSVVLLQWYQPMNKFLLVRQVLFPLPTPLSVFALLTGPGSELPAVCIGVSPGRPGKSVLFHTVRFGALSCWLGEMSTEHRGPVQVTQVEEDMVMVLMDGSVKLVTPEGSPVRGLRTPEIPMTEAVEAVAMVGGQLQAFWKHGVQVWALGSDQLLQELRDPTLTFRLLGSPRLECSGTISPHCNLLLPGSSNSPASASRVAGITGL
Summary of the method: as §1

MAP4K3 = target: T2, MAP4K3 (UniProt Q8IVH8)
T2 sequence (whole entry): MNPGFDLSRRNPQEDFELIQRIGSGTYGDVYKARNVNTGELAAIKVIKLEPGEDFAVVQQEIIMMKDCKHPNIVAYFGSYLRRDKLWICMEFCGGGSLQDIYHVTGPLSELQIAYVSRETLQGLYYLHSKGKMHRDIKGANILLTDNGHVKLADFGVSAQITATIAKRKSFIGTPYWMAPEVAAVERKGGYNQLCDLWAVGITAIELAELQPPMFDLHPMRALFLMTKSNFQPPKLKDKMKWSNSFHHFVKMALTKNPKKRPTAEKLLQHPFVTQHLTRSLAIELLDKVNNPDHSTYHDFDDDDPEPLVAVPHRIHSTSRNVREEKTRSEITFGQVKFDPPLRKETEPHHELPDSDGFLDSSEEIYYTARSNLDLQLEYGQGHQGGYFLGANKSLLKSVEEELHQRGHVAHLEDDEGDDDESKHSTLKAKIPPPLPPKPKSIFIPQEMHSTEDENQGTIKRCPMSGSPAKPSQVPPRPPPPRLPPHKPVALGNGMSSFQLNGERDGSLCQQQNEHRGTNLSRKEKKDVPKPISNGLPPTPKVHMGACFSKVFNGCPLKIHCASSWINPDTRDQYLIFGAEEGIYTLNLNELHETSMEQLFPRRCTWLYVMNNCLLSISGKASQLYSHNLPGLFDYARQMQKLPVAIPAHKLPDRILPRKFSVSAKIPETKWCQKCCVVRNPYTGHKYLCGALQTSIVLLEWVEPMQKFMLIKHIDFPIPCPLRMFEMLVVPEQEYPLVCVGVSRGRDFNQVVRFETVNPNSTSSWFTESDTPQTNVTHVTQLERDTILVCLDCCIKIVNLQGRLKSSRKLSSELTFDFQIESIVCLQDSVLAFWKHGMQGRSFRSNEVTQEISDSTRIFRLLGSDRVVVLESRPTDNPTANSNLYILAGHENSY
Summary of the method: as §1

BRAF = BRAF (UniProt P15056)
Sequence of BRAF (P15056 whole entry): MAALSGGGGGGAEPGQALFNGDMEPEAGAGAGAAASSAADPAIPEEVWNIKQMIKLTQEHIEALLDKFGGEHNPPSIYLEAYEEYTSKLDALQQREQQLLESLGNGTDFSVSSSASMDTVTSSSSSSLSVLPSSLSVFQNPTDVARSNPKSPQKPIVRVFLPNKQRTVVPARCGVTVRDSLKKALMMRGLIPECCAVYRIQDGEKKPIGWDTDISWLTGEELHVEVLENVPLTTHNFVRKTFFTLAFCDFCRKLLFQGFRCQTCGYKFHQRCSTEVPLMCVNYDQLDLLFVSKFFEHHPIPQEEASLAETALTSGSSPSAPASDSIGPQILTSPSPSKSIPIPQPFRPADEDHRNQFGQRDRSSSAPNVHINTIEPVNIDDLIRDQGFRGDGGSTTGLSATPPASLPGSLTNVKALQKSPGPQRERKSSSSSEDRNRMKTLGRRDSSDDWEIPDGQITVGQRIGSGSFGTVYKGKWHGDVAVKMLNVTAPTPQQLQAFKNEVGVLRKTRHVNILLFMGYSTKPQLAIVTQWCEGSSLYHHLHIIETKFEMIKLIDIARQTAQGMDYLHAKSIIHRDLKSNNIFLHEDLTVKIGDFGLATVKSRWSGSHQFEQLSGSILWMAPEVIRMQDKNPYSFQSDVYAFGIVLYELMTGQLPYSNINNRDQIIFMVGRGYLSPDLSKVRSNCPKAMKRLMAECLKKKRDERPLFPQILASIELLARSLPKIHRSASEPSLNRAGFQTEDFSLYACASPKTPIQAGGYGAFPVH
Summary of the method: as §1

PLK1 = PLK1 (UniProt P53350)
Sequence of PLK1 (P53350 whole entry): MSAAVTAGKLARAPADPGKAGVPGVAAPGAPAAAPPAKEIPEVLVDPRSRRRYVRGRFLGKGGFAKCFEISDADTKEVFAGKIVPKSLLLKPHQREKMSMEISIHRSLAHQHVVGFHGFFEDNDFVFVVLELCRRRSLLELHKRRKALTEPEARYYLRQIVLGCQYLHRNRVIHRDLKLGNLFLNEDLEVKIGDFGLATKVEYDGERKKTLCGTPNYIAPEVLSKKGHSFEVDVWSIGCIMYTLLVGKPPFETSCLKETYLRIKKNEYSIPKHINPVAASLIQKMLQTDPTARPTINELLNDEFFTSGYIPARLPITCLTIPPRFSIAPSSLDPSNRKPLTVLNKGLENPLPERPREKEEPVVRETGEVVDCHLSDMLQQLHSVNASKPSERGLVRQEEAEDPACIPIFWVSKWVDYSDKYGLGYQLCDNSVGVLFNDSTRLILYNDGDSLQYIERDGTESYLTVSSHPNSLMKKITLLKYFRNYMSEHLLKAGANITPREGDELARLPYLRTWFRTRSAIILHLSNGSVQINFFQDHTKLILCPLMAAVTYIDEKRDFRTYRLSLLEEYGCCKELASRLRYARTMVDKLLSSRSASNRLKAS
Summary of the method: as §1

UniProt Q8TBX8 = target: T3, UniProt Q8TBX8
T3 sequence (whole entry): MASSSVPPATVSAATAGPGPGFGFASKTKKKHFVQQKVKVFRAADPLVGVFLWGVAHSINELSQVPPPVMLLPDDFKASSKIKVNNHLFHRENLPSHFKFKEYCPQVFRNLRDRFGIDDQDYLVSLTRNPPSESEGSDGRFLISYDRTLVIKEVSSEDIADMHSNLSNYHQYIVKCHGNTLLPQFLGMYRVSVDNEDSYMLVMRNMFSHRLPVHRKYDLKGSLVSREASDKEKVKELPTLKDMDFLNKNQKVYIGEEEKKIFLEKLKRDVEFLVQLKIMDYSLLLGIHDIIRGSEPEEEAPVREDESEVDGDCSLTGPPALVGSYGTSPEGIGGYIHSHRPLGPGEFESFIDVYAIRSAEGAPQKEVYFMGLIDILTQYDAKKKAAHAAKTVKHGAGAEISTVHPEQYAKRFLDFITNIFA
Summary of the method: as §1

pIC50 (EPHB2; cell material: Lysate mix) | pIC50 (MYLK) | pIC50 (CDK5; cell material: Lysate mix) | pIC50 (UniProt Q92918; cell material: Lysate mix) | pIC50 (MAP4K3; cell material: Lysate mix) | pIC50 (BRAF; cell material: Lysate mix) | pIC50 (PLK1; cell material: Lysate mix) | pIC50 (UniProt Q8TBX8; cell material: Lysate mix) | Structure (SMILES) | pIC50 (EPHB2; cell material: Jurkat cells) | pIC50 (EPHB2; cell material: Jurkat lysate) | pIC50 (CDK5; cell material: Jurkat cells) | pIC50 (CDK5; cell material: Jurkat lysate) | pIC50 (UniProt Q92918; cell material: Jurkat cells) | pIC50 (UniProt Q92918; cell material: Jurkat lysate) | pIC50 (MAP4K3; cell material: Jurkat cells) | pIC50 (MAP4K3; cell material: Jurkat lysate) | pIC50 (BRAF; cell material: Jurkat cells) | pIC50 (BRAF; cell material: Jurkat lysate) | pIC50 (PLK1; cell material: Jurkat cells) | pIC50 (PLK1; cell material: Jurkat lysate) | pIC50 (UniProt Q8TBX8; cell material: Jurkat cells) | pIC50 (UniProt Q8TBX8; cell material: Jurkat lysate)
< 4.52 | < 4.52 | 6.02 | 4.77 | 4.65 | < 4.52 | < 4.52 | < 4.52 | C#CCNC(=O)c1cc(Nc2cc(C)[nH]n2)nc(N2CCN(Cc3ccc(S(=O)(=O)F)cc3)CC2)n1 |  |  |  |  |  |  |  |  |  |  |  |  |  | 
< 4.52 | < 4.52 | 6.06 | 5.8 | 5.11 | < 4.52 | < 4.52 | < 4.52 | CCNC(=O)c1cc(Nc2cc(C3CC3)[nH]n2)nc(N2CCN(Cc3ccc(S(=O)(=O)F)cc3)CC2)n1 |  |  |  |  |  |  |  |  |  |  |  |  |  | 
< 4.52 | < 4.52 | 5.93 | 4.78 | < 4.52 | < 4.52 | < 4.52 | < 4.52 | CCNC(=O)c1cc(Nc2cc(C)[nH]n2)nc(N2CCN(Cc3ccc(S(=O)(=O)F)cc3)CC2)n1 |  |  |  |  |  |  |  |  |  |  |  |  |  | 

The next lines start with the molecule.

Structure (SMILES) | pIC50 (EPHB2; cell material: Lysate mix) | pIC50 (MYLK) | pIC50 (CDK5; cell material: Lysate mix) | pIC50 (UniProt Q92918; cell material: Lysate mix) | pIC50 (MAP4K3; cell material: Lysate mix) | pIC50 (BRAF; cell material: Lysate mix) | pIC50 (PLK1; cell material: Lysate mix) | pIC50 (UniProt Q8TBX8; cell material: Lysate mix) | pIC50 (EPHB2; cell material: Jurkat cells) | pIC50 (EPHB2; cell material: Jurkat lysate) | pIC50 (CDK5; cell material: Jurkat cells) | pIC50 (CDK5; cell material: Jurkat lysate) | pIC50 (UniProt Q92918; cell material: Jurkat cells) | pIC50 (UniProt Q92918; cell material: Jurkat lysate) | pIC50 (MAP4K3; cell material: Jurkat cells) | pIC50 (MAP4K3; cell material: Jurkat lysate) | pIC50 (BRAF; cell material: Jurkat cells) | pIC50 (BRAF; cell material: Jurkat lysate) | pIC50 (PLK1; cell material: Jurkat cells) | pIC50 (PLK1; cell material: Jurkat lysate) | pIC50 (UniProt Q8TBX8; cell material: Jurkat cells) | pIC50 (UniProt Q8TBX8; cell material: Jurkat lysate)
C#CCNC(=O)c1cc(Nc2cc(C3CC3)[nH]n2)nc(N2CCN(Cc3ccc(S(=O)(=O)F)cc3)CC2)n1 | < 4.52 | < 4.52 | 6.48 | 5.9 | 5.43 | < 4.52 | < 4.52 | < 4.52 | < 4.52 | < 4.52 | 6.74 | 5.96 | 5.88 | 5.35 | 6.02 | 4.77 | 5.36 | < 4.52 | 5.83 | < 4.52 | 5.4 | < 4.52
O=C(NCCNC(=O)c1cc(Nc2cc(C3CC3)[nH]n2)nc(N2CCN(Cc3ccc(S(=O)(=O)F)cc3)CC2)n1)OC1CC/C=C/CCC1 (stereo not given) | < 4.52 | < 4.52 | 5.12 | < 4.52 | < 4.52 | < 4.52 | < 4.52 | < 4.52 | < 4.52 | < 4.52 | 6.34 | 5.1 | 5.32 | < 4.52 | 5.15 | < 4.52 | < 4.52 | < 4.52 | 5.85 | < 4.52 |  | < 4.52
Cc1cc(Nc2cc(C(=O)NCCNC(=O)OC3CC/C=C/CCC3)nc(N3CCN(Cc4ccc(S(=O)(=O)F)cc4)CC3)n2)n[nH]1 (stereo not given) | < 4.52 | < 4.52 | 4.92 | < 4.52 | < 4.52 | < 4.52 | < 4.52 | < 4.52 |  |  |  |  |  |  |  |  |  |  |  |  |  | 
